Here are results for 2 compounds from paper PMC7345095, “New Synthetic Nitro-Pyrrolomycins as Promising Antibacterial and Anticancer Agents” (Antibiotics, 2020).

Assay [1] deals with HCT116 and MCF 7 cancer cell lines. The assay can be described thus: MTT viability assay, statements over both cancer cell lines. Format: cell-based. The note with it: for IC50: MTT, 48 h challenge, group statement, read-out: IC50, regardless of the cancer cell line (HCT116, MCF 7); for C-SI, mean value among the two cancer cell lines: mean of HCT116 and MCF 7 C-SI. The procedure:
(§1) The HCT116 colon cancer cell line (ATCC® CCL-247™), the MCF 7 breast cancer cell line (ATCC® HTB-22™) and the hTERT RPE-1 -immortalized retinal pigment epithelial cell line (ATCC® CRL-4000™) used in this study were cultured in DMEM medium (Gibco, Paisley, UK), supplemented with 1% glutamine, 10% heat-inactivated fetal bovine serum and 100U/mL penicillin and 100 μg/mL streptomycin, as already described, and maintained at 37 °C and 5% CO2.
(§2) Cells were plated at 5 × 10^3 cells/well in 96-well plates and incubated for 24 h prior to treatment for further 48 h of different concentrations of PMs. After incubation, a sample of 20 μL of Thiazolyl Blue Tetrazolium Bromide (5 mg mL^−1) in PBS was added to each well and cultured for 2h at 37 °C in CO2 incubator. After removing the medium containing MTT and three washes with PBS, 100 μL of warm DMSO was added to each well to dissolve formazan. Samples were shaken for 10 min, at room temperature in the dark, and the absorbance was recorded at 570 nm using a microplate reader (Spark® 20M Tecan Trading AG, Switzerland). Percentage of cell viability with respect to untreated control cells (vehicle control) was calculated after subtraction of the blank. The IC50 values, that is the concentration necessary to inhibit the 50% of cell growth, was calculated using a dose-response model, obtained from sigmoidal fitting of response curves of percent inhibition versus logarithmic concentration of PMs, using Graph Pad Prism software. Each result represents the mean value of three different experiments performed in triplicate.

Assay [2] deals with P. aeruginosa cells. The assay can be described thus: AO/EB double staining of bacterial cells. It counts as cell-based, Pseudomonas aeruginosa. The note with it: 24 h. The method, then: It is noteworthy to highlight that the main difference between PM-C and 5d relies only on the presence of the nitro group in the position R3 of the latter, which is likely responsible for its enhanced electronegativity and, therefore, better biological reactivity over PM-C.
Figure 3 Fluorescence micrographs of P. aeruginosa cells treated for 24 h with 100 μM of PM-C or 10 μM of PM 5d after AO/EB double staining. Control represents untreated cells. Green (AO) are viable cells, red (EB) dead cells, and orange vital cells with damaged membranes.

Assay [3] deals with P. aeruginosa. The assay can be described thus: MIC by absorbance at 600 nm after overnight challenge. The note with it: Pseudomonas aeruginosa, LB medium, absorbance 600 nm. Format: cell-based. The method, then: (§3) Kill curve assays were performed to test the antimicrobial efficacy of pyrrolomycins (i.e., 1, 2, 5a, 5b, 5c, 5d), as well as that of the natural PM-C against the indicator pathogen Staphylococcus aureus ATCC 25923 and Pseudomonas aeruginosa ATCC 10145 strains. Briefly, a single colony of either S. aureus or P. aeruginosa strains was picked up and pre-cultivated (ca. 16 h) at 37 °C with shacking (160 rpm) in Luria Bertani medium (hereinafter named as LB and composed of (g L^−1): sodium chloride, 10; yeast extract, 5; tryptone, 10). The same medium was solidified by adding 15 g L^−1 of bacteriological agar when needed. Bacterial cells were then inoculated (1% v/v) in LB medium amended with increasing concentrations—ranging from 0 to 100 μM as initial concentration—of each pyrrolomycin tested, challenging the cultures for 24 h and incubating them as reported above. The actual number of viable colony forming units per milliliter of culture (CFU mL^−1) of each bacterial strain, who survived the challenge exerted by pyrrolomycins, was evaluated through the spot plate count method and compared to unchallenged cultures, as reported elsewhere. The data are reported as average values (n = 3) of CFU mL^−1 in the logarithmic (Log10) scale with standard deviation (SD). Evaluation of the MIC of PM-5c, and -5d against S. aureus and of PM-5d against P. aeruginosa was performed by incubating 1% (v/v) of an overnight bacterial suspension in LB medium in presence of increasing concentrations of the PMs. As a control, MIC of PM-C was measured. At the time of the inoculum and after overnight challenge, the absorbance of the cultures at 600 nm, which is an indirect way to measure the bacterial cell growth, was registered using a Spark™ 10 M multimode microplate reader measuring. The experiment was carried out in triplicate, being the absorbance corrected by subtracting that of the culture medium amended with the corresponding PM tested.

Assay [4] concerns S. aureus. Described as above. It counts as cell-based. The note with it: Staphylococcus aureus, LB medium, absorbance 600 nm. The procedure:
as §3

Assay [5] has as its system HCT116 cells. The assay can be described thus: Acridine orange/ethidium bromide (AO/EB) staining. Particulars: for AO/EB fluorescence of treated HCT116 cells (type of cell death): treated at IC50 for 24 and 48 h. Format: cell-based. The text has this:
Cells were immediately observed under a fluorescent microscopy (Carl Zeiss) at 630 × magnification.

The test system of assay [6] is HCT116 colon cancer cell line. The assay can be described thus: MTT viability assay. Format: cell-based. The note with it: for IC50: MTT, 48 h of treatment; for C-SI (Cancer Selectivity Index), HCT116: ratio of IC50 of normal hTERT-RPE-1 to that of HCT116, first value of the cell. The procedure:
as §1, §2
On the technique in general: Formazan colour is commonly taken as a measure of viable cells.

Assay [7] deals with MCF 7 breast cancer cell line. The assay can be described thus: MTT viability assay. Particulars: for IC50: MTT, 48 h of treatment; for C-SI (Cancer Selectivity Index), MCF 7: ratio of IC50 of normal hTERT-RPE-1 to that of MCF 7, second value of the cell. Format: cell-based. The procedure: as §1, §2
The subject of assay [8] is hTERT RPE-1 immortalized retinal pigment epithelial cell line. The assay can be described thus: MTT viability assay (cytotoxicity on normal cells). Format: cell-based. Particulars: read-out: IC50 hTERT-RPE-1. The method, then:
as §1, §2

The subject of assay [9] is HCT116 cells. The assay can be described thus: Morphological assessment, phase contrast inverted microscope. The note with it: 0.1 µM (sub-inhibitory), 24 h. Format: cell-based. The procedure: HCT116 cells were seeded in 24 well culture plates with a cell density of 1 × 10^5 cells/well. After 24 h cells were incubated for 24 h with different concentration of the selected PMs, and observed under a phase contrast inverted microscope (Carl Zeiss) at 200× magnification, for morphological changes assessment.

Assay [10] relates to Pseudomonas aeruginosa ATCC 10145. The assay can be described thus: Kill curve assay (MBC), planktonic cells. It counts as cell-based. Particulars: for MBC: read-out: MBC P. aeruginosa. The method, then: as §3
For assay [11], the system named is Staphylococcus aureus ATCC 25923. The assay can be described thus: Kill curve assay (MBC), planktonic cells. Format: cell-based. The note with it: for MBC: Staphylococcus aureus, read-out: MBC S. aureus. The method, then: as §3
Assay [12] deals with Escherichia coli. The arrangement: method as in PMID 31405863, PMID 15730262. The note with it: natural PMs; cited from earlier work.

SMILES strings stand for the structures. Converted amounts (≈) assume the structure as drawn. Read-outs that look alike come from different tables or passages of the source.

For orientation: IC50 means the concentration that inhibits the measured activity by half. A word on the MIC: it is the smallest concentration in the dilution series that meets the test's criterion for growth inhibition. Read a low MIC as a more susceptible organism. As usually defined, the MBC is the smallest concentration meeting the test's criterion for killing. Consider `O=C(c1cc(Cl)cc(Cl)c1O)c1[nH]c(Cl)c(Cl)c1[N+](=O)[O-]` [PM 5d, (3,5-Dichloro-2-hydroxyphenyl)(4,5-dichloro-3-nitro-1H-pyrrol-2-yl)methanone], for which the concentration for half-maximal inhibition (IC50) in assay [1] is 800 to 2250 nM; in assay [6] (Homo sapiens, HCT-116, 48 h) it was 1560 nM; in assay [6], 1600 ± 200 nM; in [7] (Homo sapiens, MCF7, 48 h), 1570 ± 390 nM; in assay [7] it was 1600 ± 400 nM; in assay [8] (hTERT-RPE1, MTT, 48 h of treatment, normal epithelial cells), 225000 ± 22700 nM. Moreover, the “C-SI, mean value among the two cancer cell lines” value in assay [1] amounted to 143. The “AO/EB staining colour of P. aeruginosa cells” value in assay [2] (10 μM (sub-inhibitory)) is given as “either orange (indicating that cell membranes were damaged due to the entrance of EB) or red (indicating not viable cells)”. The minimum inhibitory concentration (MIC) was greater than 20 µM in assay [3] and 2 µM (≈ 0.74 µg/mL) in assay [4]. In addition, the “late apoptosis by AO/EB staining, HCT116” value in assay [5] (treated at IC50, after 48 h) is given as “reddish orange cells”. Further, the “AO/EB fluorescence of treated HCT116 cells (type of cell death)” value in assay [5] is “orange fluorescence”. The “C-SI (Cancer Selectivity Index), HCT116” value in assay [6] is 143.3. In addition, the “C-SI (Cancer Selectivity Index), MCF 7” value in assay [7] stood at 143.4. The “morphology of treated HCT116 cells” value in assay [9] is “more fibroblastic and less clumped morphology”. The MBC in assay [10] (Pseudomonas aeruginosa, ATCC10145, minimal bactericidal concentration, planktonic cells, 24 h challenge, LB medium) worked out at 30 µM (≈ 11.1 µg/mL); in assay [11] (ATCC25923, minimal bactericidal concentration, planktonic cells, 24 h challenge, LB medium), 7.5 µM (≈ 2.77 µg/mL). In addition, in [10] (ratio of IC50 of normal hTERT-RPE-1 to MBC of P. aeruginosa, first value of the cell), the “B-SI (Bacterial Selectivity Index), P. aeruginosa” value was 7.5. In assay [11] (ratio of IC50 of normal hTERT-RPE-1 to MBC of S. aureus, second value of the cell), the “B-SI (Bacterial Selectivity Index), S. aureus” value is 30.
For the compound `O=C(c1cc(Cl)c(Cl)[nH]1)c1cc(Cl)cc(Cl)c1O` [PM-C, reference compound], the IC50 in assay [1] is 800 to 2250 nM; in assay [6] (Homo sapiens, HCT-116, 48 h) it was 800 ± 300 nM; in assay [7] (Homo sapiens, MCF7, 48 h), 1500 ± 400 nM; in assay [8] (hTERT-RPE1, 48 h) it was 8300 ± 1900 nM. Also, in assay [1], the “C-SI, mean value among the two cancer cell lines” value turned out to be 8. For the same compound, the “AO/EB staining colour of P. aeruginosa cells” value in assay [2] (100 μM) is given as “appeared green”. Also, the results for the minimum inhibitory concentration (MIC) in assay [3] and in assay [4] were greater than 40 µM and 1 µM (≈ 0.325 µg/mL), respectively. Further, the “AO/EB fluorescence of treated HCT116 cells (type of cell death)” value in [5] is recorded as “orange fluorescence”. Further, the “C-SI (Cancer Selectivity Index), HCT116” value in [6] worked out at 10.4. For the same compound, in [7], the “C-SI (Cancer Selectivity Index), MCF 7” value worked out at 5.5. In [12], the “MIC against Escherichia coli” value was “more than 300 μM”. In assay [9], the “morphology of treated HCT116 cells” value was “more fibroblastic and less clumped morphology”. In addition, the MBC was greater than 100 µM in assay [10] (Pseudomonas aeruginosa, ATCC10145, 24 h); greater than 100 µM in assay [10] (minimal bactericidal concentration, planktonic cells, 24 h challenge, LB medium); 90 µM (≈ 29.2 µg/mL) in assay [11] (ATCC25923, 24 h). For the same compound, the “log reduction in the number of viable CFUs, P. aeruginosa” value in [10] (highest concentration tested 100 μM, 24 h) is listed as “did not display any antimicrobial effect”. In addition, the “decrease in the number of vital S. aureus cells” value in [11] (increasing concentrations up to 80 μM, 24 h) is on record as ~ 3 log.
